# Test results from patent US4803074A, “FR-900848 substance and preparation thereof” (priority 1987, dated 1989).
# How the values were obtained:
# [1] = tested on: Aspergillus niger IFO 4417; assay: MIC (minimal inhibitory concentration), two-fold agar-plate dilution method; format: cell-based; settings: IFO4417, malt extract agar, 37° C., 20 hours
# Protocol: (§1) In vitro antimicrobial activity was determined by the two-fold agar-plate dilution method as described below.
# (§2) One loopful of an overnight culture of each test strain in malt extract broth was streaked on malt extract agar containing graded concentrations of FR-900848 substance and MIC was determined after incubation at 37° C. for 20 hours.
# Aureobasidium pullulans = assay: as above; format: cell-based; settings: malt extract agar, 37° C., 20 hours
# Protocol: as §1, §2
# Fusarium oxysporum = assay: as above; format: cell-based; settings: malt extract agar, 37° C., 20 hours
# Protocol: as §1, §2
# Geotrichum candidum = assay: as above; format: cell-based; settings: malt extract agar, 37° C., 20 hours
# Protocol: as §1, §2
# [2] = tested on: Mucor rouxianus (Calmette) Wehmer; assay: as above; format: cell-based; settings: 20 h, read-out: MIC (minimal inhibitory concentration)
# Protocol: as §1, §2
# Sclerotinia arachidis = assay: as above; format: cell-based; settings: malt extract agar, 37° C., 20 hours
# Protocol: as §1, §2
# Trichophyton asteroides = assay: as above; format: cell-based; settings: malt extract agar, 37° C., 20 hours
# Protocol: as §1, §2
# fungi = assay: In vitro antimicrobial activity (summary statement); format: cell-based; settings: for example Aspergillus niger, Geotrichum candidum, Trichophyton asteroides
# Protocol: as §1, §2
# [3] = Acute toxicity by intraperitoneal injection; settings: mouse, in vivo, ip, mice (ICR, male, 4 weeks old)
# Text: Acute toxicity of FR-900848 substance in mice (ICR, male, 4 weeks old) by intraperitoneal injection is more than 1.0 g/kg.
# Solubility = format: physicochemical
structure (smiles),measurement,setting,value
CC1CC1C=CC1CC1C1CC1C1CC1C1CC1C=CC=CC(=O)NCC1OC(N2CCC(=O)NC2=O)C(O)C1O (centres unmarked) [FR-900848 substance],MIC,[1],0.015 µg/mL
same,MIC,Aureobasidium pullulans,0.03 µg/mL
same,MIC,Fusarium oxysporum,0.05 µg/mL
same,MIC,Geotrichum candidum,0.12 µg/mL
same,MIC,[2],0.03 µg/mL
same,MIC,Sclerotinia arachidis,0.05 µg/mL
same,MIC,Trichophyton asteroides,0.5 µg/mL
same,antimicrobial activity against fungi,fungi,showed antimicrobial activity
same,LD50,[3],> 1000 mg/kg
same,Solubility,Solubility; chloroform,slightly soluble
same,Solubility,Solubility; dimethylsulfoxide,soluble
same,Solubility,Solubility; ethyl acetate,slightly soluble
same,Solubility,Solubility; methanol,slightly soluble
same,Solubility,Solubility; water,insoluble
